# Results: publication PMC4387272, “Pharmacokinetic, pharmacodynamic and biomarker evaluation of transforming growth factor-β receptor I kinase inhibitor, galunisertib, in phase 1 study in patients with advanced cancer” (Investigational new drugs, 2014)
# Where “and” joins values, the source holds several entries; their conditions need not be identical. Equal entries are not always repeated. Marks after values point to notes of the source that are not given here.
# System: glioma
# Assay: Radiographic response / clinical benefit (RECIST, Macdonald criteria) in first-in-human dose study
# Assay type: in vivo
# Details: for Cycles (n) (best response): individual glioma patients with sequenced tumor; for CR/PR/SD ≥6 cycles, Low grade/secondary glioma / CR/PR/SD ≥6 cycles, Primary glioma: number of patients; for Clinical Benefit / No Clinical Benefit: Parts A and B
# Experimental: Starting with Cohort 3, only patients with relapsed and progressive glioma were eligible for this study. All patients were assessed for radiographic responses using Response Evaluation Criteria in Solid Tumors (RECIST) and, for glioma patients, using Macdonald criteria. All patients had to have an Eastern Cooperative Oncology Group performance status of ≤2. Patients were required to have adequate hematologic, hepatic, and renal function and discontinue all previous therapies for cancer at least 4 weeks prior to study enrollment. Exclusion criteria included medically uncontrolled cardiovascular illness, electrocardiogram anomalies, serious pre-existing medical conditions, and any unapproved therapy.
# • Part A was a dose escalation study using galunisertib monotherapy administered initially to patients with advanced or metastatic cancer as a daily continuous dosing. Starting with Cohort 3 and for the remainder of the study, patients received galunisertib on an intermittent dose regimen of 14 days on/14 days off for a 28-day cycle. • Part B was a safety study using galunisertib on an intermittent dose regimen at 160 mg/day (80 mg twice daily [BID]) and 300 mg/day (150 mg BID) in combination with lomustine given once every 6 weeks in patients with recurrent malignant glioma who had previously failed approved treatments. • Part C was a relative bioavailability (RBA) crossover study conducted at only one center to assess two new formulations (publication in preparation). All patients were then eligible to continue on 300 mg/day dosing. In this part of the study, patients with different tumor histologies were eligible to participate; the majority of patients had glioma. The only results from Part C presented in this publication are the results of the T cell subset examination. Other results will be published elsewhere.
# A power model was fitted to PK parameter estimates Cmax and AUC(0–24) to assess the extent of dose proportionality. Clinical benefit in this study has been defined as a patient with either a complete response (CR), partial response (PR), and stable disease (SD) ≥6 cycles. MAIP results from plasma samples taken at baseline were compared between patients completing >6 cycles and ≤6 cycles using ANOVA. The analysis included controlling the false discovery rate to 30 % using the Benjamini-Hochberg method. Boxplots showing the distributions at baseline of the potentially prognostic markers are provided. Observed TGF-β-stimulated pSMAD2 (pSMAD2^+) in PBMCs was normalized by TGF-β-stimulated tSMAD2 [(tSMAD2^+) ^0.6[9, 10]] prior to determining the minimum normalized pSMAD2^+ and calculating percentage inhibition post-baseline for each patient. Baseline and minimum post-baseline values for each patient together with maximum percentage inhibition are presented on a line and scatter plot for each patient in Cohort 3 and summary statistics by time point provided from a standard mixed effects regression model, fitting log normalized pSMAD2^+ to the fixed effects of log baseline normalized pSMAD2^+, nominal time point, dose and their interaction and patient as a random effect.
# In order to interpret protein and gene expression as potential prognostic factors we used the concept of clinical benefit based on radiographic response and/or stable disease for ≥6 cycles (Table 3).
# [1] = Part B, in combination with lomustine
# [2] = Part B, in combination with lomustine, n=26
# [3] = Primary glioma (n=13), IDH1/2 mutation
# [4] = Primary glioma (n=13), Other mutation
# [5] = Secondary or low grade glioma (n=8), IDH1/2 mutation
# [6] = Secondary or low grade glioma (n=8), Other mutation
smiles,measurement,setting,value
Cc1cccc(-c2nn3c(c2-c2ccnc4ccc(C(N)=O)cc24)CCC3)n1 [galunisertib],patients with primary glioblastoma showing radiographic responses or SD ≥6 cycles,"3/13 patients, no IDH1 or IDH2 mutation",23%
same,patients with tumors not containing the EGFR variant treated for ≥6 cycles,7/13 patients,54%
same,patients with tumors containing EGFR variants treated for <6 cycles,8/8 patients (2 in Part A and 6 in Part B),100%
same,"patients with clinical benefit (CR, PR or SD ≥6 cycles)","12 of 79 patients, all parts, all in glioma",15%
same,"cycles treated, patients still receiving galunisertib as of June 2014","Part A, 2 individual patients",73 cycles and 55 cycles
same,"Cycles on study treatment, median (range)","Part A, monotherapy, N=39",2 (1–46)
same,Cycles (n) (best response),"Part A, monotherapy",3 and 2 and 1 and 29 (CR) and 13 (PR) and 22 (PR) and 46 (CR) and 40 (SD)
same,CR/PR,"Part A, monotherapy, n=30",5 (16.7) n (%)
same,CR/PR/SD ≥6 cycles,"Part A, monotherapy, n=30",6 n (%) and 6 (20.0) n (%)
same,On study treatment at study closure in 2012,"Part A, monotherapy, n=30",2 (6.7) n (%)
same,"CR/PR/SD ≥6 cycles, Low grade/secondary glioma","Part A, monotherapy",3
same,"CR/PR/SD ≥6 cycles, Primary glioma","Part A, monotherapy",3
same,"cycles treated, patient still receiving galunisertib as of June 2014","Part B, 1 patient",48 cycles
same,"Cycles on study treatment, median (range)","Part B, in combination with lomustine, N=26",2 (1–22)
same,Cycles (n) (best response),[1],10 (PR) and 12 (SD) and 2 and 4 and 1
same,CR/PR,[2],2 (7.7) n (%)
same,CR/PR/SD ≥6 cycles,[2],6 ^* n (%) and 6 (23.1) ^* n (%)
same,On study treatment at study closure in 2012,[2],1 (3.8) n (%)
same,"CR/PR/SD ≥6 cycles, Low grade/secondary glioma",[1],4
same,"CR/PR/SD ≥6 cycles, Primary glioma",[1],2
same,Clinical Benefit,[3],0/13
same,No Clinical Benefit,[3],0/13
same,Clinical Benefit,[4],3/13
same,No Clinical Benefit,[4],10/13
same,Clinical Benefit,[5],4/8
same,No Clinical Benefit,[5],1/8
same,Clinical Benefit,[6],0/8
same,No Clinical Benefit,[6],3/8
same,patients with clinical benefit (CR/PR and SD ≥6 cycles) among patients with IDH1/2 mutation,of the 5 patients with IDH1/2 mutation,4 patients
